Test results as given in US20260287586A1, “METHODS OF TREATING TKI-RESISTANT AND SDH-DEFICIENT GIST” (priority 2023, published 2026).

Key:
[1] = test system: SDH-deficient GIST; test: Phase 1 trial HQP1351-SJ-0003: antitumor efficacy per RECIST v1.1 in SDH-deficient GIST subgroup; assay type: in vivo, human
Text: NCT03594422). The dose escalation aspect of the study enrolled patients with advanced and/or metastatic GIST or other solid tumors that were refractory or had relapsed after treatment with at least one TKI. […] All AEs were graded according to the US National Cancer Institute (NCI) Common Terminology Criteria for Adverse Events (CTCAE; version 4.03). […] Urinalysis, coagulation, cardiac troponin I/T, lipase, amylase, and electrocardiograms were done at baseline; during cycles 1 and 2 (on days 1 and 15); cycle 3, 5, 7, and 9; every 3 cycles after cycle 9 (on day 1); and 14 days after the last dose of treatment. All patients underwent tumor imaging for response assessment via computed tomography or magnetic resonance imaging at screening and every two cycles (8 weeks) until progression or discontinuation. Target and nontarget lesions were assessed per Response Evaluation Criteria in Solid Tumors version 1.1 (RECIST v1.1). CBR was defined as the proportion of patients with a confirmed CR or PR of any duration or SD for at least 16 weeks from the start of treatment (CBR=CR+PR+SD≥16 weeks). ORR was defined as the proportion of patients with a confirmed CR or PR of any duration (ORR=CR+PR). PFS was defined as the time from the start of treatment to the date of first documented disease progression or death due to any cause, whichever occurred first. OS was defined as the time from start of treatment until the date of death. We evaluated antitumor activity in patients from the SDH-deficient GIST population who had at least one postbaseline disease assessment. We used Kaplan-Meier methods to estimate PFS, and OS; corresponding 95% CIs are provided. Efficacy results for patients with SDH-deficient GIST are reported separately. All statistical analyses were performed with SAS (version 9.3 or higher; SAS Institute, Cary, NC).

[2] = test system: SDH-deficient primary GIST cells; test: Antiproliferation in SDH-deficient primary GIST cells (CellTiter 96 Aqueous assay, 72 hours); assay type: cell-based, human; details: all three primary cell lines derived from patients with SDH-deficient GIST
Experimental: Cells were seeded into 6-well plates and incubated overnight in complete culture medium.
All samples were collected at Sun Yat-sen University Cancer Center with informed consent obtained from each subject. The study, which involved human subjects, was approved by the Medical Ethics Committee of Sun Yat-sen University Cancer Center.
The tissues from GIST patient samples were sustained in Dulbecco's modified Eagle medium (DMEM)/F12 medium containing 1% antibiotic and washed with phosphate-buffered saline (PBS) and then cut into fragments by surgical ophthalmic scissors. The tissues were digested with 1 mg/mL collagenase IV at 37° C. for 30 minutes, followed by filtration of the suspension into single cells with a single-cell strainer centrifugation. […] The procedures were performed as per manufacturers' instructions.

[3] = test system: PC12 or PC12 #5F7 (SDHB KD) cells; test: Cell death assay (AO/PI staining); assay type: cell-based, rat; details: 24 hours exposure; FIG. 2B left
Experimental: (§1) Cells were extracted from SDH-deficient patient tumor tissues, seeded into 96-well plates, and incubated for 24 hours in GIST culture medium. […] Right panel, Colony formation assay in renal carcinoma cells 7860 (SDHB-wild-type) and OS-RC-2 (SDHB-deficient). Cells were seeded into 6-well plates and incubated overnight in complete culture medium.
Rat pheochromocytoma cells (PC12 or PC12 SDHB KD cells PC12 #5F7) were seeded into 24-well plates and incubated overnight in complete culture medium. […] The cell suspension was mixed at a 1:1 ratio with Viastain™ AOPI Staining solution (acridine orange/propidium iodide, #2210170205, Nexelcom Bioscience, Lawrence, MA, USA). After staining, dead cells were counted on a Cellometer® Auto 2000 Cell Counter (Nexelcom).

[4] = test system: OS-RC-2 (SDHB-deficient) and 785-O (SDHB-competent) renal carcinoma cells; test: Cell colony formation assay; assay type: cell-based; details: 7 days (SDHB-competent line), 10 days (OS-RC-2); FIG. 2B right
Experimental: as §1
For the colony formation assay, 1,000 cells were plated in 6-well plates per well, incubated for 7 to 14 days, then stained with 0.1% crystal violet and colony numbers counted.

[5] = test system: oncogenic signaling proteins in SDHB KD PC12 #5F7 cells; test: Western blot analysis of oncogenic signaling proteins; assay type: cell-based, rat
Experimental: as §1
Harvested cells treated with dimethyl sulfoxide (DMSO) or indicated concentrations of compounds were lysed in radio-immunoprecipitation (RIPA) buffer (#P0013, Beyotime, China) containing a protease inhibitor cocktail (#20104ES08, Yeasen Biotechnology Co., Ltd., Shanghai) and a phosphatase inhibitor (#20109-A, #20109-B, Yeasen). Equal amounts of protein were separated by 4-20% sodium dodecyl sulfate polyacrylamide gel electrophoresis (SDS-PAGE) and transferred to nitrocellulose membranes. After being blocked with 3% bovine serum, membranes were incubated with primary antibodies, followed by horseradish peroxidase (HRP)-conjugated secondary antibody (#7074, anti-rabbit IgG, CST; #7076, anti-mouse IgG, CST). Finally, bound secondary antibodies were visualized using an ECL Western Blotting Detection Kit (Yeasen). […]

[6] = test system: BCL-XL and MCL-1 protein expression; test: Mechanism study: BCL-XL and MCL-1 protein expression; assay type: cell-based; details: possibly via inhibition of KIT signal pathway and STAT3
Text: Therefore, selective inhibition of BCL-2, aided by TKI-mediated MCL-1 and BCL-XL inhibition, markedly augmented cleavage of caspase-3 and poly(ADP-ribose) polymerase 1 (PARP-1), thus triggering apoptosis and subsequently enhancing antitumor effects.

Compound: Cc1ccc(C(=O)Nc2ccc(CN3CCN(C)CC3)c(C(F)(F)F)c2)cc1C#Cc1cnc2[nH]ncc2c1 [Olverembatinib, olverembatinib]
- overall survival rate ([1]; SDH-deficient GIST cohort at data cut-off): 100%
- complete response (CR) ([1]; SDH-deficient GIST subgroup, 26 evaluable patients): No patient experienced a complete response
- confirmed overall responses per RECIST v1.1 ([1]; SDH-deficient GIST subgroup, median follow-up 17.0 months): 6 of 26 evaluable patients
- median progression-free survival (PFS) ([1]; SDH-deficient GIST, Kaplan-Meier estimate, RECIST v1.1): 25.7 months
- potency rank among TKIs [2]: most potent inhibitor
- cell death activity in SDHB KD versus parental cells [3]: dose-dependently more potent activity in PC12 #5F7 than in parental PC12 cells
- inhibition of clone formation, OS-RC-2 versus 785-O [4]: more significantly inhibited
- effect on HIF-1α, HIF-2α, VEGFA, FGFR1, IGF-1R, p-FGFR1, p-IGF-1R, STAT3, p-STAT3, Src and downstream AKT, ERK1/2 ([5]; 24 h treatment, FIG. 2C): dose-dependently inhibited
- cleavage of caspase-3 and poly(ADP-ribose) polymerase 1 (apoptosis induction) ([5]; tumor cell lines treated with olverembatinib): Increased cleavage of caspase-3 and poly(ADP-ribose) polymerase 1
- effect on BCL-XL and MCL-1 protein expression [6]: downregulate BCL-XL and MCL-1 protein expression
